From ChEMBL document CHEMBL1201862, “PubChem BioAssay data set” (2004)
The source made the active and inactive calls.

Tests used:
[1] = molecular target: T1, Small ubiquitin-related modifier 1 (Homo sapiens, UniProt P63165); assay: inhibitors of SUMO1 partner interactions, dose response, biochemical, FRET (AID 624383); format: functional; details: read-out: IC50_Mean
[2] = molecular target: T2, Dual specificity protein phosphatase 6 (Rattus norvegicus, UniProt Q64346); assay: MKP-3 phosphatase inhibitors, primary screen, biochemical, rat enzyme, in vitro (AID 425)
T2 sequence (Q64346 whole entry): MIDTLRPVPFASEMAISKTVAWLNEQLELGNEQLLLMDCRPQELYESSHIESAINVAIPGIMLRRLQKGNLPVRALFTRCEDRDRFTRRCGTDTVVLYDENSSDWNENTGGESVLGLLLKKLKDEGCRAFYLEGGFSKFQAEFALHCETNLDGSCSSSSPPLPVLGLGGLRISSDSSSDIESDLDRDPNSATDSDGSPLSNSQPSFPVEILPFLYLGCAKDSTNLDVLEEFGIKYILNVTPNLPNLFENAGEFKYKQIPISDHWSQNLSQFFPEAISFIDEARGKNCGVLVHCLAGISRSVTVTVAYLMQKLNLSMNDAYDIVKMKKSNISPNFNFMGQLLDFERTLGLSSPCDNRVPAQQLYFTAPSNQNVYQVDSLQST

[3] = molecular target: T3, Dual specificity protein phosphatase 3 (Homo sapiens, UniProt P51452); assay: VHR1 phosphatase inhibitors, biochemical (AID 1878)
[4] = ARNT/TACC3 interaction disruptors, potency, confirmation, biochemical, AlphaScreen, cherry-picked samples (AID 651703); format: functional, Homo sapiens;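 further: His-tagged ARNT PAS-B domain paired with GST-TACC3 E629A dimer coactivator fragment; potency of inhibitors that break up the complex and lower AlphaScreen signal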
[5] = molecular target: T1, Small ubiquitin-related modifier 1; assay: inhibitors of SUMO1 peptide binding, dose response, biochemical, fluorescence polarization, uHTS hits (AID 624382); format: functional; details: read-out: IC50_Mean
Genome polyprotein = Genome polyprotein (dengue virus type 2, UniProt P29990); assay: Dengue-2 NS5 methyltransferase inhibitors, primary screen, biochemical, confirmation dose response (AID 588689); format: functional
[6] = molecular target: T3, Dual specificity protein phosphatase 3; assay: VHR1 phosphatase inhibitors, primary screen, biochemical, absorbance, uHTS (AID 1654)
[7] = molecular target: T4, Carboxy-terminal domain RNA polymerase II polypeptide A small phosphatase 1 (Homo sapiens, UniProt Q9GZU7); assay: inhibitors of CTDSP1, concentration-response testing, biochemical assay, absorbance-based, actives from ultra-high-throughput screening (AID 540297); format: functional
T4 sequence (Q9GZU7 whole entry): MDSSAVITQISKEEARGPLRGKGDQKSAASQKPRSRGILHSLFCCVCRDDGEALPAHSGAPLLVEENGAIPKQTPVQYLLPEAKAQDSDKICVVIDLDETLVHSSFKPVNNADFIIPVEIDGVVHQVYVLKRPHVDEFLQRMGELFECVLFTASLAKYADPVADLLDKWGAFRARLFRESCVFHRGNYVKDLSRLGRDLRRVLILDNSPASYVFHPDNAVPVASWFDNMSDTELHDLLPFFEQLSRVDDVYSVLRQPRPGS

Vero = Vero cell cytotoxicity, cytotoxicity control for flavivirus capping enzyme inhibitors (AID 588742); format: functional; details: Chlorocebus sabaeus
[8] = molecular target: 1-acylglycerol-3-phosphate O-acyltransferase ABHD5/Perilipin-5 (Homo sapiens, UniProt Q00G26+Q8WTS1); assay: Luminescence-based biochemical high throughput dose response assay for inhibitors of the interaction of the lipase co-activator protein, abhydrolase domain containing 5 (ABHD5) with perilipin-5 (MLDP; PLIN5) (2K validation set). [Related pubchem assays (depositor defined):AID493035, AID493241]
Perilipin-1/ABHD5 = Perilipin-1/ABHD5 (Homo sapiens, UniProt O60240+Q8WTS1); assay: Luminescence-based biochemical high throughput dose response assay for inhibitors of the interaction of the lipase co-activator protein, abhydrolase domain containing 5 (ABHD5) with perilipin-1 (PLIN1) (2K validation set). [Related pubchem assays (depositor defined):AID493027, AID493057]
[9] = molecular target: Eukaryotic translation initiation factor 4E (Mus musculus, UniProt P63073); assay: eIF4E–eIF4G protein interaction inhibitors, dose response, biochemical, TR-FRET (AID 855); format: functional;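 further: potency for disrupting eIF4E binding to eIF4GI seen as loss of FRET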
Exodeoxyribonuclease V = Exodeoxyribonuclease V (Escherichia coli (strain K12), UniProt P04993+P07648+P08394); assay: E. coli RecBCD inhibitors, dose response, counter-screen for AddAB inhibitor project, absorbance, V66 E. coli, mutant T4 phage (AID 492957); format: functional, cell-based, Escherichia coli str. K-12 substr. MG1655
[10] = Counterscreen for AddAB inhibitors: absorbance-based bacterial cell-based high throughput dose response assay for inhibitors of bacterial viability. [Related pubchem assays (depositor defined):AID435030, AID449728, AID449731, AID488942, AID488955, AID488956]; format: functional
[11] = molecular target: Luciferin 4-monooxygenase (Photinus pyralis, UniProt P08659); assay: firefly luciferase enzyme inhibitors, dose response, biochemical, luminescence (AID 1891)
HEK293 [12] = assay: cells; format: functional, cell-based; details: Homo sapiens
[13] = Luminescence Cell-Based Dose Confirmation HTS to Identify Inhibitors of Platelet Dense Granule Release. [Related pubchem assays: 1663 (Primary HTS), 1678 (Summary of Project)]; format: functional
[14] = molecular target: Nucleotide-binding oligomerization domain-containing protein 2 (Homo sapiens, UniProt Q9HC29); assay: NOD2 signaling inhibitors, cell-based, luminescence, uHTS, HEK293 (AID 1566); format: functional
HEK293 [15] = assay: cells; format: functional, cell-based; details: Homo sapiens; remark: listed apart in the source
[16] = HepG2 cell cytotoxicity, dose response, cytotoxicity control for Shn3 inhibitor project, CellTiter-Glo, cherry-picked (AID 624134); format: functional, cell-based
[17] = Shn3 3'UTR reporter inhibitors, dose response, cell-based, Clone20 osteoblasts, firefly luciferase, cherry-picked (AID 624132); format: functional;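 further: firefly luciferase luminescence from reporter carrying the Shn3 3'UTR in osteoblasts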
HEK293 [18] = assay: cells; format: functional, cell-based; details: Homo sapiens; remark: listed apart in the source
[19] = control 3'UTR Renilla luciferase suppression, dose response, counter-screen for Shn3 inhibitor project, cell-based, Clone20-Shn3RL, cherry-picked (AID 624133); format: functional
HEK293 [20] = assay: NOD2 signaling inhibitors in MDP-stimulated cells, cell-based, uHTS, luminescence (AID 2001); format: functional; details: Homo sapiens
HEK293 [21] = assay: NOD1 signaling inhibitors, primary screen, cell-based, luminescence, uHTS (AID 1578); format: functional; details: Homo sapiens
Cannabinoid receptor 2 [22] = molecular target: T5, Cannabinoid receptor 2 (Homo sapiens, UniProt P34972); assay: SAR analysis of agonists of the Cannabinoid Receptor 2 using an Image-Based Assay - Set 2. [Related pubchem assays (depositor defined):AID1961, AID1965]; format: functional
Cannabinoid receptor 2 [23] = molecular target: T5, Cannabinoid receptor 2; assay: SAR analysis of antagonists of the Cannabinoid Receptor 2 using an Image-Based Assay - Set 2. [Related pubchem assays (depositor defined):AID1961, AID1965]; format: functional
[24] = molecular target: G-protein coupled receptor 55 (Homo sapiens, UniProt Q9Y2T6); assay: SAR analysis of selective Agonists of GPR55 using an Image-Based Assay. [Related pubchem assays (depositor defined):AID1961, AID1965]; format: functional
Cannabinoid receptor 1 = Cannabinoid receptor 1 (Homo sapiens, UniProt P21554); assay: SAR analysis of antagonists of the Cannabinoid Receptor 1 using an Image-Based Assay. [Related pubchem assays (depositor defined):AID1961, AID1965]; format: functional
Sequence of Cannabinoid receptor 1 (P21554 whole entry): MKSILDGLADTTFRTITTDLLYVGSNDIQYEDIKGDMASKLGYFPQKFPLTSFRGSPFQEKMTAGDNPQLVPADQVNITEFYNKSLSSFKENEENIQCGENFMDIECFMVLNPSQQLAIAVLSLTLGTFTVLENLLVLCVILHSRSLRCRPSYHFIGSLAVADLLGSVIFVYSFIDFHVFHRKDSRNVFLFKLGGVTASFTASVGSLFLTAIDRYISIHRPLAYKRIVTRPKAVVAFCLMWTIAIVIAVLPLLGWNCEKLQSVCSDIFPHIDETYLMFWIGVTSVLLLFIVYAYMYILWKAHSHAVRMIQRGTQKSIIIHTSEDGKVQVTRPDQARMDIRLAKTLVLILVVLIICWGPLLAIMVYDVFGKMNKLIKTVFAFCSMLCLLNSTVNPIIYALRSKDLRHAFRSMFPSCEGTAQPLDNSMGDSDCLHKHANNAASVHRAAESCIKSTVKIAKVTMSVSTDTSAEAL

T1 sequence (P63165 whole entry): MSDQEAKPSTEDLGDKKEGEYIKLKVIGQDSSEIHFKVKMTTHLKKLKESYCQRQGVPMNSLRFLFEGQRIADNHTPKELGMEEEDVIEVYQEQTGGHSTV
Sequence of Nucleotide-binding oligomerization domain-containing protein 2 (Q9HC29 whole entry, the tested form may be a part): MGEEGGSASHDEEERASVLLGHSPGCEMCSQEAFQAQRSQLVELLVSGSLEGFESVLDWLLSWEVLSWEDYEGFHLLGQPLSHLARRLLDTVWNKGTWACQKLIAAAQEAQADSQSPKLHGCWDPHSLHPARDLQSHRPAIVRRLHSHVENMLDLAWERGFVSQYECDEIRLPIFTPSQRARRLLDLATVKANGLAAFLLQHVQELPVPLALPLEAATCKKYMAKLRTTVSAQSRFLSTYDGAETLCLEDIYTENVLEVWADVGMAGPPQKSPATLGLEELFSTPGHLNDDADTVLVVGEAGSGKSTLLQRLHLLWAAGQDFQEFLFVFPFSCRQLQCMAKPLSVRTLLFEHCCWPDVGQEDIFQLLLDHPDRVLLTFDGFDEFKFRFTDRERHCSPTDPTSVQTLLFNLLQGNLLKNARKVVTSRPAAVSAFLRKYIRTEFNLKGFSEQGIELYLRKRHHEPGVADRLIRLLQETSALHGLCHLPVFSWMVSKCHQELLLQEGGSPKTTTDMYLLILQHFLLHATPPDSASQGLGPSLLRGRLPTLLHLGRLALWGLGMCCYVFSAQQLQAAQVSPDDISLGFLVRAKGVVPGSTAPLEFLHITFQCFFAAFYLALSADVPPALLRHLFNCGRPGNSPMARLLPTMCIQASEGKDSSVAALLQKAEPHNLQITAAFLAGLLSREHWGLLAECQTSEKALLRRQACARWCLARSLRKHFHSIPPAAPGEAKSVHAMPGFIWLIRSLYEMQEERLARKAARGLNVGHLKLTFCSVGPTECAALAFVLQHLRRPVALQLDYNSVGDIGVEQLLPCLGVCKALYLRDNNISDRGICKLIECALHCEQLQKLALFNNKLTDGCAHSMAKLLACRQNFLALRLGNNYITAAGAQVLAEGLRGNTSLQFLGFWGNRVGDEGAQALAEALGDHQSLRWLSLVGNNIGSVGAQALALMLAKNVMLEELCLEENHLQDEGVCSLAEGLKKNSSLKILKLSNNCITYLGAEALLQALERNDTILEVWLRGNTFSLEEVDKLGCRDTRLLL
T3 sequence (P51452 whole entry, the tested form may be a part): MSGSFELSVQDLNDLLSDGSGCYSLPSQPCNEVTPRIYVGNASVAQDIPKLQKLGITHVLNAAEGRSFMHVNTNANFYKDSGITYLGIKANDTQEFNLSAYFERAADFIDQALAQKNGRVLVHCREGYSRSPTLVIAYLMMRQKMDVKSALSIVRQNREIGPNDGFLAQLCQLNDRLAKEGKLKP
T5 sequence (P34972 whole entry): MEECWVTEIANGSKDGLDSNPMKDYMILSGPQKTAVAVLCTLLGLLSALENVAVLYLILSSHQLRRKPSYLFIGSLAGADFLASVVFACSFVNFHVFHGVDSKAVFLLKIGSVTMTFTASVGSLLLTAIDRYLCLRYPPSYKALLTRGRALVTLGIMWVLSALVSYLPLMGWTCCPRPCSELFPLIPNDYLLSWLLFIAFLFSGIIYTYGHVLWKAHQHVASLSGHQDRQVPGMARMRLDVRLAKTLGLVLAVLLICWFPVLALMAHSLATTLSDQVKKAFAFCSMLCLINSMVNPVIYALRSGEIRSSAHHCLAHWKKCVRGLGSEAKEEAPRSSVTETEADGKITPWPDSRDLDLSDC
Sequence of G-protein coupled receptor 55 (Q9Y2T6 whole entry): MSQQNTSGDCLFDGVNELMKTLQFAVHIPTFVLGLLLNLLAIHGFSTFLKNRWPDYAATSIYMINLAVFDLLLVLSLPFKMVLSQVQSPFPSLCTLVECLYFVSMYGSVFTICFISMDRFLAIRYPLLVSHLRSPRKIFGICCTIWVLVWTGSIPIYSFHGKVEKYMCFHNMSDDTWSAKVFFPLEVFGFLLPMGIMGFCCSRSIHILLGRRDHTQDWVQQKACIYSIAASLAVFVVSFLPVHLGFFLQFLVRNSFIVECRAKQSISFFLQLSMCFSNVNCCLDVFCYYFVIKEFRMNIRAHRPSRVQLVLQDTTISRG
Sequence of Luciferin 4-monooxygenase (P08659 whole entry): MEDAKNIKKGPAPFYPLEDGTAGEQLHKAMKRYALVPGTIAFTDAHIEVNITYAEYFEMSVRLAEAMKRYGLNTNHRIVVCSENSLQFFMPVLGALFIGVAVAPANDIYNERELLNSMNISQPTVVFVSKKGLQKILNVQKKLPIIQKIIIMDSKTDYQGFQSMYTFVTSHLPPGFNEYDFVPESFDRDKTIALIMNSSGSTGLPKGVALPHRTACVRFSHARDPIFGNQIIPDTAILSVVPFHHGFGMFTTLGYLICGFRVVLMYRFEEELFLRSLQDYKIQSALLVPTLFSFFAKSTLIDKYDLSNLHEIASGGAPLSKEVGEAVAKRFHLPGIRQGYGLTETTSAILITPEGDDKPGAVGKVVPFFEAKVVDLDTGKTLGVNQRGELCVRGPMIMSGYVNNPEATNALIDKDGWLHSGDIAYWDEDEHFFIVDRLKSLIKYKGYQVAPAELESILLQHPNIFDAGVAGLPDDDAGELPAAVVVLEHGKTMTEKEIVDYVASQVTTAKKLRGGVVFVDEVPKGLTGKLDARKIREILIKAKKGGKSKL
Sequence of 1-acylglycerol-3-phosphate O-acyltransferase ABHD5/Perilipin-5 (Q00G26 whole entry, the tested form may be a part): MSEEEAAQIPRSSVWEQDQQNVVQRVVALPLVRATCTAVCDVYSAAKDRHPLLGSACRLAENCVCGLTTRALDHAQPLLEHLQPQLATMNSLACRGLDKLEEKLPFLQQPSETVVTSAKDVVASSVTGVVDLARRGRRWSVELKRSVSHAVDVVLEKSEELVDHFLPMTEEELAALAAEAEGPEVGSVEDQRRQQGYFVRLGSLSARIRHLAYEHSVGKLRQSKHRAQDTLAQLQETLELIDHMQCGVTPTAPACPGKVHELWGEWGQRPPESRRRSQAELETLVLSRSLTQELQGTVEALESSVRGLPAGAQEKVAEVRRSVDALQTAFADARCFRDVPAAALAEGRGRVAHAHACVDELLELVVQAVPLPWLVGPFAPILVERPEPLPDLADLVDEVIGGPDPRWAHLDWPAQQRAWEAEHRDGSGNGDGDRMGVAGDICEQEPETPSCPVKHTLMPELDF
Sequence of 1-acylglycerol-3-phosphate O-acyltransferase ABHD5/Perilipin-5 (Q8WTS1 whole entry, the tested form may be a part): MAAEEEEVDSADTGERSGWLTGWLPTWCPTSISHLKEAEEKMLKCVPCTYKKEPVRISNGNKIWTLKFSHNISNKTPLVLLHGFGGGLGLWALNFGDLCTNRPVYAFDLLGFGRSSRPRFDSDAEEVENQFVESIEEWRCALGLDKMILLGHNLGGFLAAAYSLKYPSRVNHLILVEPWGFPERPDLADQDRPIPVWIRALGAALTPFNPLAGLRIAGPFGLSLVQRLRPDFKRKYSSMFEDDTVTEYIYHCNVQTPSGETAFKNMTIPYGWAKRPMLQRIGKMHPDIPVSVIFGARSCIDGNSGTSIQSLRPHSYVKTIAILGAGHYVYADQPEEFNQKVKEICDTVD
Sequence of Genome polyprotein (P29990 2492-3391 limits assumed): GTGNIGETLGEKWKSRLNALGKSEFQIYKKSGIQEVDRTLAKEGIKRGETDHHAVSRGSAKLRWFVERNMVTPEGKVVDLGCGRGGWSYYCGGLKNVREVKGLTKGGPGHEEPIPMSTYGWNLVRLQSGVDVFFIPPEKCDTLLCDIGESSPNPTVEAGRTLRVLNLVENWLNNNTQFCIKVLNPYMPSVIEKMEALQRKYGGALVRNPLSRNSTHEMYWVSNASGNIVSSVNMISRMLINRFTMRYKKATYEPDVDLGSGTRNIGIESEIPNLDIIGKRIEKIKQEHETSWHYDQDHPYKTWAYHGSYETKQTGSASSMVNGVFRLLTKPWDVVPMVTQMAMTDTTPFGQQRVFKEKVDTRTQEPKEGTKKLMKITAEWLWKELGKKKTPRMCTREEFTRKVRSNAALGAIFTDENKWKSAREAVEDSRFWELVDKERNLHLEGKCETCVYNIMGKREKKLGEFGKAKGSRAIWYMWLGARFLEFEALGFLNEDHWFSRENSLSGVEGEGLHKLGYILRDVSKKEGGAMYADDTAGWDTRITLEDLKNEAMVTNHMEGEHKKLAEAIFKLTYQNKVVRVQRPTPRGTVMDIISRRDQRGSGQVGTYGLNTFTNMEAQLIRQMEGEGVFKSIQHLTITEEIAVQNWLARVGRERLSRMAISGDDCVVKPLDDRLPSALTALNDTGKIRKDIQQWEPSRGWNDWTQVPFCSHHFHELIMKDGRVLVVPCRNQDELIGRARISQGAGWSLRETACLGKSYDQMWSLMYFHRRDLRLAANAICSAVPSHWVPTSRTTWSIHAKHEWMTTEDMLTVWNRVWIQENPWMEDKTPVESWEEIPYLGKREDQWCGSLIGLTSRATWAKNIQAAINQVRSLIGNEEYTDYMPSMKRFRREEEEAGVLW
Sequence of Eukaryotic translation initiation factor 4E (P63073 whole entry): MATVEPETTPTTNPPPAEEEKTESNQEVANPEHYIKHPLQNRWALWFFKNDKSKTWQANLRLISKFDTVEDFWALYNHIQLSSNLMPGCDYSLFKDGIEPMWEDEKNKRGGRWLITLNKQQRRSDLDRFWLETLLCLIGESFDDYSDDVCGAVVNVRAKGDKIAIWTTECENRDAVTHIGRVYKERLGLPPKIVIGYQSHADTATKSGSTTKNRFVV

Cc1c(CCC(=O)O)c(=O)oc2c(C)c3occ(-c4ccc(Br)cc4)c3cc12
IC50 [1]: 12.6 µM (active)
IC50 [2]: 69.2 µM (active)
IC50 [3]: 11.3 µM (active)
AC50 [4]: 99.5 µM (active)
IC50 [5]: > 66.6 µM (inactive)
IC50 (Genome polyprotein): 33.2 µM (active)
IC50 [6]: 11.1 µM (active)
IC50 [7]: 3.57 µM (active)
CC50 (Vero): > 40 µM (active)

COc1cc(/C=C(\C#N)C(=O)N2CCc3ccccc32)ccc1O
IC50 [8]: > 26.5 µM (inactive)
IC50 (Perilipin-1/ABHD5): 21.4 µM (inactive)
IC50 [9]: 50 µM (inactive)

COc1ccc(OCC(O)CNc2ccc(Br)cc2)cc1 (stereo not given)
IC50 (Exodeoxyribonuclease V): > 119 µM (inactive)
IC50 [10]: > 119 µM (inactive)

CCC1CCCCN1S(=O)(=O)c1ccc(NC(=O)c2ccncc2)cc1 (stereo not given)
EC50 [11]: > 112 µM (not active)
IC50 (HEK293 [12]): 19.3 µM (active)
EC50 [13]: > 112 µM (not active)
EC50 [14]: > 20 µM (inactive)
IC50 (HEK293 [15]): > 20 µM (inactive)
AC50 [16]: 4.88 µM (active)
AC50 [17]: 3.43 µM (active)
IC50 (HEK293 [18]): 8.23 µM (active)
AC50 [19]: 16.5 µM (active)
IC50 (HEK293 [20]): 11.7 µM (inactive)
EC50 (HEK293 [21]): 5.51 µM (active)

COc1ccc(CCNc2oc(COc3ccccc3Cl)nc2C#N)cc1OC
IC50 (HEK293 [12]): 11.1 µM (active)
EC50 [14]: 16 µM (active)
IC50 (HEK293 [15]): > 20 µM (inactive)
IC50 (HEK293 [18]): 8.53 µM (active)
IC50 (HEK293 [20]): 8.33 µM (active)
EC50 (HEK293 [21]): 14 µM (active)

C/C(C=NNC(=O)c1nnn(-c2nonc2N)c1CN1CCC(C)CC1)=C/c1ccccc1
EC50 (Cannabinoid receptor 2 [22]): > 32 µM (inactive)
IC50 (Cannabinoid receptor 2 [23]): > 32 µM (inactive)
EC50 [24]: 0.681 µM (active)
IC50 (Cannabinoid receptor 1): > 32 µM (inactive)
